Consider one compound from patent publication US11045419B2, “Pharmaceutical preparation of carbohydrates for therapeutic use” (Glycomine, Inc., priority 2013, dated 2021).

This experiment has as its system CDG-Ia fibroblasts. Description: LLO oligosaccharide distribution in fibroblasts by normal phase chromatography. It counts as cell-based, human. The note with it: low glucose DMEM, 300 μM treatment, peak area normalized to protein content. The protocol: Cellular internalization into the cytosol and subsequent integration of the M1P-liposomes (as prepared in Example 1), was assessed in vitro using primary human dermal fibroblasts derived from patients affected with CDG-Ia disorder (CDG-Ia fibroblasts) and wild-type human dermal fibroblasts. For evaluation of the ability of the M1P-liposomes to correct protein glycosylation defects, M1P-liposomes were delivered to CDG Type I primary fibroblasts derived from patients affected with CDG-Ia disorder. The ability to drive glycosylation forward was evaluated by comparing glycoprotein N-glycan structure before and after treatment. Such comparison required N-glycan analysis using normal phase chromatography. By utilizing endocytotic pathways, M1P-liposomes can enter the cell interior and release their cargo into the cytosol. Due to the ability to deliver a non-modified mannose-1-phosphate into the cytosol, analysis was performed on the assembly of LLO oligosaccharides in wild-type fibroblasts and fibroblasts derived from a CDG-Ia patient ([…] structures were isolated from the wild-type fibroblasts (having 100% PMM activity) as well as from the CDG-Ia fibroblasts (having 10% PMM activity) and the amounts of the LLO structures were compared using chromatographic methods. CDG-Ia dermal fibroblasts make a series of truncated lipid-linked oligosaccharide (LLO) species ranging in size from M2Gn2 to M5Gn2 with M2Gn2 and M3Gn2 being predominant. The M1P liposomes from Example 1 were tested in order to evaluate their capacity to normalize the distribution of various LLO oligosaccharides. CDG-Ia fibroblasts cultured in low glucose DMEM media were incubated with 300 μM of bare M1P (M1P) and 300 μM of the M1P-liposomes (M1PL). After treatment, cells were harvested and LLO oligosaccharides were recovered, hydrolyzed, modified with fluorophore, and analyzed by normal phase chromatography as described by Gao et al. (Methods in Enzymology, 2006, 415, 3-20) and Bones et al. (Anal. Chem, 2011, 83 (13), 5344-52). The peak area of each LLO was normalized to protein content prior to calculation of percentage abundance.

On to `O=P(O)(O)OC1O[C@H](CO)[C@@H](O)[C@H](O)[C@@H]1O` (stereo partly shown) [M1P, mannose-1-phosphate], for which the “M2Gn2 LLO oligosaccharide distribution (percentage abundance)” value was found to be 40%, the “M3Gn2 LLO oligosaccharide distribution (percentage abundance)” value came to 24%, the “M4Gn2 LLO oligosaccharide distribution (percentage abundance)” value is reported as 27% and the “M5Gn2 LLO oligosaccharide distribution (percentage abundance)” value is 8.9%.
